Assay results published in ChEMBL document CHEMBL1201862, “PubChem BioAssay data set” (2004).
The source made the active and inactive calls.

Assays:
[1] = target: Peroxisome proliferator-activated receptor gamma/Nuclear receptor corepressor 2 (Homo sapiens, UniProt P37231+Q9Y618); assay: Counterscreen for NR2E3 inverse agonists: TR-FRET-based biochemical high throughput dose response assay to identify inverse agonists of the interaction between peroxisome proliferator-activated receptor gamma (PPARg) and nuclear receptor co-repressor 2 (NCOR2).; format: functional
[2] = target: Photoreceptor-specific nuclear receptor (Homo sapiens, UniProt Q9Y5X4); assay: ligands suppressing NR2E3 nuclear receptor activity – biochemical, TR-FRET, dose response (AID 463256); format: functional
[3] = target: Luciferin 4-monooxygenase (Photinus pyralis, UniProt P08659); assay: inhibition of purified Photinus pyralis luciferase – biochemical, luminescence, dose response (AID 1891)
[4] = Luminescence Cell-Based Dose Confirmation HTS to Identify Inhibitors of Platelet Dense Granule Release. [Related pubchem assays: 1663 (Primary HTS), 1678 (Summary of Project)]; format: functional
[5] = Fluorescence Cell-Based Dose Response to Identify Inhibitors of Thrombin Receptor-Activating Peptide SFLLRN-Mediated P-Selectin Induction on Platelets. [Related pubchem assays: 1663 (Primary HTS), 1889 (retest at dose ), 1891 (counterscreen), 1678 (Project Summary)]; format: functional
[6] = target: Voltage-gated inwardly rectifying potassium channel KCNH2 (Homo sapiens, UniProt Q12809); assay: concentration-dependent hERG rescue from blockers – cell-based, thallium flux, dose response (AID 2121); format: ADME
[7] = target: Induced myeloid leukemia cell differentiation protein Mcl-1 (Homo sapiens, UniProt Q07820); assay: blockers of MCL1 binding to BIM peptide – biochemical, fluorescence polarization, BIM-BH3 peptide, 1536-well, dose response (AID 2217)
[8] = target: Bcl-2-like protein 1 (Homo sapiens, UniProt Q07817); assay: blockers of BCLXL peptide binding – biochemical, fluorescence polarization, 1536-well, selectivity assay for MCL1 inhibitor project, dose response (AID 2218)
[9] = target: T1, Endoribonuclease toxin MazF (Escherichia coli K-12, UniProt P0AE70); assay: activation of MazEF endoribonuclease cleavage – biochemical, fluorescence, single-stranded RNA substrate, uHTS hits, dose response (AID 588481); format: functional
T1 sequence (P0AE70 whole entry): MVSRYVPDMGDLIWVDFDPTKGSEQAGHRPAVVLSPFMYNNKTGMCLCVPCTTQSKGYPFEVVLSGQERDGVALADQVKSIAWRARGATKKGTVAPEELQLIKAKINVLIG

[10] = target: T1, Endoribonuclease toxin MazF; assay: substrate-only fluorescence increase artefacts – biochemical, single-stranded RNase substrate, counter-screen for MazEF activator project, dose response (AID 588502); format: functional
[11] = NIH-3T3 fibroblast cytotoxicity, dose response, cytotoxicity control, cell-based, fluorescence, Alamar Blue, secondary assay (AID 2327); format: functional;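 further: NIH-3T3 mouse fibroblasts cultured with fluconazole at 8 µg/mL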
[12] = test system: BJ; assay: BJ-TERT fibroblast viability loss – cell-based, RAS-independent, luminescence, dose response (AID 1933); format: functional; conditions: Homo sapiens
[13] = target: Galanin receptor type 2 (Homo sapiens, UniProt O43603); assay: Dose Response cell-based high-throughput screening assay to identify antagonists of galanin receptor 2 (GALR2). [Related pubchem assays: 828, 866 ]; format: functional
[14] = test system: BJ; assay: cells; format: functional, cell-based; conditions: Homo sapiens
[15] = fluconazole-exposed Candida albicans growth modulators – fluorescence, retest, confirmation (AID 2467); format: functional, cell-based
[16] = test system: BJ; assay: BJ-TERT-LT-ST fibroblast viability loss – cell-based, RAS-independent, luminescence, dose response (AID 1935); format: functional; conditions: Homo sapiens;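 further: BJ fibroblasts immortalized with TERT plus LT and ST oncogenes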
[17] = DRD fibroblast viability loss – cell-based, non-viral oncogenic, luminescence, dose response (AID 1934); format: functional; conditions: Homo sapiens
[18] = target: G-protein coupled receptor 55 (Homo sapiens, UniProt Q9Y2T6); assay: selective activators of receptor GPR55 – imaging, U2OS cells, beta-arrestin-GFP redistribution, primary screen (AID 1961); format: functional
[19] = target: T2, Heat shock factor protein 1 (Mus musculus, UniProt P38532); assay: enhancement of HSF1-driven luciferase signal – cell-based, NIH3T3, luminescence, dose retest, confirmation (AID 435004); format: functional;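 further: stress induced by proteasome inhibitor MG132 added 30 min after compound; luciferase reporter driven by HSF1 response element in NIH3T3 cells; actives raise luminescence as potentiators of the MG132 stress response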
T2 sequence (P38532 whole entry): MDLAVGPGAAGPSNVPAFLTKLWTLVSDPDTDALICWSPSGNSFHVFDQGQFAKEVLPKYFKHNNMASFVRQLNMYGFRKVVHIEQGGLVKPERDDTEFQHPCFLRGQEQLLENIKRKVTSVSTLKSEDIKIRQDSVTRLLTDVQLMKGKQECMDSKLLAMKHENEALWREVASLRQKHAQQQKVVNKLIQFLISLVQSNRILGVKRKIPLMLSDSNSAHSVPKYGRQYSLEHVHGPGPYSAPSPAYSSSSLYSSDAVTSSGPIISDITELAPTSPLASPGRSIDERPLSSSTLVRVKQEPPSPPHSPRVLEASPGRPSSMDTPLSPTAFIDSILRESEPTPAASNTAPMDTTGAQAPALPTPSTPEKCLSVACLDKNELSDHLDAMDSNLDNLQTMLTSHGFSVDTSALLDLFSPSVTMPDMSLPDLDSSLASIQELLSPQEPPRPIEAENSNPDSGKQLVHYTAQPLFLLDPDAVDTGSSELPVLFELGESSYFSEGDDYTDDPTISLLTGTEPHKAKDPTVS

[20] = target: T3, Microphthalmia-associated transcription factor (Homo sapiens, UniProt O75030); assay: reducers of TRPM1 reporter luminescence, concentration series – cell-based, SK-MEL-5, cherry-picked, set 3, MITF inhibitor project, dose response (AID 493073); format: functional;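 further: SK-MEL-5 melanoma cells with luciferase driven by the MITF target TRPM1 promoter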
T3 sequence (O75030 whole entry): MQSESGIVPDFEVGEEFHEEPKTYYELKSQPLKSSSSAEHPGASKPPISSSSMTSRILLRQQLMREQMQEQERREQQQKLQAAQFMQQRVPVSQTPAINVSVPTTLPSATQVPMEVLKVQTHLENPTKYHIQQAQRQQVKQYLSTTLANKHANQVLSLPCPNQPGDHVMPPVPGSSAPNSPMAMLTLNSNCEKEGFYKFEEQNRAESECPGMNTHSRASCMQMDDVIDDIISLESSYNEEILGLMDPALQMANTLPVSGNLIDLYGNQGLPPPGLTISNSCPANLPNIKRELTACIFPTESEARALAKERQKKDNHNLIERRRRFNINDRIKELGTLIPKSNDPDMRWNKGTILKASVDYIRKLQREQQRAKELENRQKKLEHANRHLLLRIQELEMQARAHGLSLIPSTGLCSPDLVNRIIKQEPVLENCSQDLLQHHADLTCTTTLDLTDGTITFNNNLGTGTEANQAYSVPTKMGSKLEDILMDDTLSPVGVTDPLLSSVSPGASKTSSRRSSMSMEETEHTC

[21] = target: Heat shock protein HSP 90-alpha (Homo sapiens, UniProt P07900); format: functional, organism-based
[22] = target: T4, High affinity choline transporter 1 (Homo sapiens, UniProt Q9GZV3); assay: human choline transporter blockers, potency – cell-based, 5-point CRC, membrane potential dye, dose response (AID 504840); format: functional
T4 sequence (Q9GZV3 whole entry): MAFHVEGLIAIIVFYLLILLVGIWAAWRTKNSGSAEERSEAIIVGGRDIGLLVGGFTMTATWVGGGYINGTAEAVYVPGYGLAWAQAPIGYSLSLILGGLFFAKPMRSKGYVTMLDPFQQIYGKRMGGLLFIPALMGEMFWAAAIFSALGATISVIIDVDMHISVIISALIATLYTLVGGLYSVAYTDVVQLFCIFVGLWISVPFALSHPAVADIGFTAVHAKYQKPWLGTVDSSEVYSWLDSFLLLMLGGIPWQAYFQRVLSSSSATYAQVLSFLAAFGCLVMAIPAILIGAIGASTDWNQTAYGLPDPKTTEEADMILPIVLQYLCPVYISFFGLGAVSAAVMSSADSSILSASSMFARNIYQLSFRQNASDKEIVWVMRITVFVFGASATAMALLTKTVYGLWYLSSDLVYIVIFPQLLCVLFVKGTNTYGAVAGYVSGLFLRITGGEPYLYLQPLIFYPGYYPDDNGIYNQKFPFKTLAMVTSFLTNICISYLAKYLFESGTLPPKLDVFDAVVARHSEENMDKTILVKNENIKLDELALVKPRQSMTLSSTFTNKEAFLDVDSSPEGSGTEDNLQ

Chain of Photoreceptor-specific nuclear receptor (Q9Y5X4 whole entry): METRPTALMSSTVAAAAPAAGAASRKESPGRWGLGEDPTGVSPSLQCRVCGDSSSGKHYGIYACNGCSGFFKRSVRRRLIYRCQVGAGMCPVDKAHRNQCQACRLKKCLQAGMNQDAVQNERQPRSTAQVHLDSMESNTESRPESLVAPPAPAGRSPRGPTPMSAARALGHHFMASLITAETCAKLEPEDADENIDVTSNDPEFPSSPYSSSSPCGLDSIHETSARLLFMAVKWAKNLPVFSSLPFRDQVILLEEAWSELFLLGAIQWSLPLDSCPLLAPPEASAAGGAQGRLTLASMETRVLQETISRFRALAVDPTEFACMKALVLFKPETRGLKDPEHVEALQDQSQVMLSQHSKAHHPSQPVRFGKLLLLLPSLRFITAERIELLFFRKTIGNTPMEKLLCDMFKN
Chain of Luciferin 4-monooxygenase (P08659 whole entry): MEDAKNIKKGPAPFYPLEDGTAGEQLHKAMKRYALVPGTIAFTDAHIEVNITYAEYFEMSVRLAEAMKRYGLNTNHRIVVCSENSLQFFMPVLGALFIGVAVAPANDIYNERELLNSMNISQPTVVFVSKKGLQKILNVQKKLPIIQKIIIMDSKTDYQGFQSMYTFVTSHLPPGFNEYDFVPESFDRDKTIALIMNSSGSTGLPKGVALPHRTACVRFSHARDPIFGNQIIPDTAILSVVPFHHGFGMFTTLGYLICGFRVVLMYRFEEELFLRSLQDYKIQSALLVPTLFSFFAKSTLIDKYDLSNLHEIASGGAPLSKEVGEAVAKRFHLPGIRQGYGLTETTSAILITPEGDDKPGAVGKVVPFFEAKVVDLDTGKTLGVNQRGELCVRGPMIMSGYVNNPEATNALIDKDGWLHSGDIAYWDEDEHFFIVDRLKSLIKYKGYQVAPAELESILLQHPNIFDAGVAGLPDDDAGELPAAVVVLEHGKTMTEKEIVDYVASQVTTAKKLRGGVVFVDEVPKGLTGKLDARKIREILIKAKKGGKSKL
Chain of Galanin receptor type 2 (O43603 whole entry): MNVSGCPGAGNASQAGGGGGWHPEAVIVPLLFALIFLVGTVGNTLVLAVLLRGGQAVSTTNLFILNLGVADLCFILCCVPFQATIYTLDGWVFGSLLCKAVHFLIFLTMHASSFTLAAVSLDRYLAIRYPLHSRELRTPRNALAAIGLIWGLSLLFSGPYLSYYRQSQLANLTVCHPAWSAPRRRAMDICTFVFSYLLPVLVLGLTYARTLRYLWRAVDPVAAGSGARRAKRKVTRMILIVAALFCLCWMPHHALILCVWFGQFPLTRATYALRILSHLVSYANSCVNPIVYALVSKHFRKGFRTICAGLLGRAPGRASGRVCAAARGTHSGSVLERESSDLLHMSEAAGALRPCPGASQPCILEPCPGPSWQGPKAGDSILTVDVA
Chain of Bcl-2-like protein 1 (Q07817 whole entry): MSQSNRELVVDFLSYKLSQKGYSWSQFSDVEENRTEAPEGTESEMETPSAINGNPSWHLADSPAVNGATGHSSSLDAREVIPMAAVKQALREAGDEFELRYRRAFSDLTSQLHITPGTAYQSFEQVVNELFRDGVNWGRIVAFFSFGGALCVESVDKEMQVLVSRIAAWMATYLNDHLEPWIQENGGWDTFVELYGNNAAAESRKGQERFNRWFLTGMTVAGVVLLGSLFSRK
Chain of G-protein coupled receptor 55 (Q9Y2T6 whole entry): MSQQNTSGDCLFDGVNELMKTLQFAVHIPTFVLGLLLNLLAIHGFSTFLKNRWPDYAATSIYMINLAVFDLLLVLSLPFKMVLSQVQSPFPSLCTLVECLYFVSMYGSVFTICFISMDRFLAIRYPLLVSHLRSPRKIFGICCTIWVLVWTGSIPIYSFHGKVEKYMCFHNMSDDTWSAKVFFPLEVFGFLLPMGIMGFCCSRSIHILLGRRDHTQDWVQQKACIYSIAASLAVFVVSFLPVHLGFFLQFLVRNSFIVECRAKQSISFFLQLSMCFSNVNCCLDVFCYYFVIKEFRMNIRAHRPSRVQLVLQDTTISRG
Chain of Peroxisome proliferator-activated receptor gamma/Nuclear receptor corepressor 2 (P37231 whole entry): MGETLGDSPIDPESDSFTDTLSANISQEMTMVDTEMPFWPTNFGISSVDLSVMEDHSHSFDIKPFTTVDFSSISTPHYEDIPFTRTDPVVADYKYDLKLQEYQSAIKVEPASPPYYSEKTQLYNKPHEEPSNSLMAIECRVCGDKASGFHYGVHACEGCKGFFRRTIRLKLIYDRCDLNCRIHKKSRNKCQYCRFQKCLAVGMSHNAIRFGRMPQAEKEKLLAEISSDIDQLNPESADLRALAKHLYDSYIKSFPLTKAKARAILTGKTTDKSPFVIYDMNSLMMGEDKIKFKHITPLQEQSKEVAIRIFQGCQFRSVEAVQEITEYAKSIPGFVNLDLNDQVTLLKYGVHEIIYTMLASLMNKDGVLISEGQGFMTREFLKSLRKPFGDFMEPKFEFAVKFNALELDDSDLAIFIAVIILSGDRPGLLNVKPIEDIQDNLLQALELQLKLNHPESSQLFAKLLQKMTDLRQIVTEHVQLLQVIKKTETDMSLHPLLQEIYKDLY
Chain of Peroxisome proliferator-activated receptor gamma/Nuclear receptor corepressor 2 (Q9Y618 whole entry): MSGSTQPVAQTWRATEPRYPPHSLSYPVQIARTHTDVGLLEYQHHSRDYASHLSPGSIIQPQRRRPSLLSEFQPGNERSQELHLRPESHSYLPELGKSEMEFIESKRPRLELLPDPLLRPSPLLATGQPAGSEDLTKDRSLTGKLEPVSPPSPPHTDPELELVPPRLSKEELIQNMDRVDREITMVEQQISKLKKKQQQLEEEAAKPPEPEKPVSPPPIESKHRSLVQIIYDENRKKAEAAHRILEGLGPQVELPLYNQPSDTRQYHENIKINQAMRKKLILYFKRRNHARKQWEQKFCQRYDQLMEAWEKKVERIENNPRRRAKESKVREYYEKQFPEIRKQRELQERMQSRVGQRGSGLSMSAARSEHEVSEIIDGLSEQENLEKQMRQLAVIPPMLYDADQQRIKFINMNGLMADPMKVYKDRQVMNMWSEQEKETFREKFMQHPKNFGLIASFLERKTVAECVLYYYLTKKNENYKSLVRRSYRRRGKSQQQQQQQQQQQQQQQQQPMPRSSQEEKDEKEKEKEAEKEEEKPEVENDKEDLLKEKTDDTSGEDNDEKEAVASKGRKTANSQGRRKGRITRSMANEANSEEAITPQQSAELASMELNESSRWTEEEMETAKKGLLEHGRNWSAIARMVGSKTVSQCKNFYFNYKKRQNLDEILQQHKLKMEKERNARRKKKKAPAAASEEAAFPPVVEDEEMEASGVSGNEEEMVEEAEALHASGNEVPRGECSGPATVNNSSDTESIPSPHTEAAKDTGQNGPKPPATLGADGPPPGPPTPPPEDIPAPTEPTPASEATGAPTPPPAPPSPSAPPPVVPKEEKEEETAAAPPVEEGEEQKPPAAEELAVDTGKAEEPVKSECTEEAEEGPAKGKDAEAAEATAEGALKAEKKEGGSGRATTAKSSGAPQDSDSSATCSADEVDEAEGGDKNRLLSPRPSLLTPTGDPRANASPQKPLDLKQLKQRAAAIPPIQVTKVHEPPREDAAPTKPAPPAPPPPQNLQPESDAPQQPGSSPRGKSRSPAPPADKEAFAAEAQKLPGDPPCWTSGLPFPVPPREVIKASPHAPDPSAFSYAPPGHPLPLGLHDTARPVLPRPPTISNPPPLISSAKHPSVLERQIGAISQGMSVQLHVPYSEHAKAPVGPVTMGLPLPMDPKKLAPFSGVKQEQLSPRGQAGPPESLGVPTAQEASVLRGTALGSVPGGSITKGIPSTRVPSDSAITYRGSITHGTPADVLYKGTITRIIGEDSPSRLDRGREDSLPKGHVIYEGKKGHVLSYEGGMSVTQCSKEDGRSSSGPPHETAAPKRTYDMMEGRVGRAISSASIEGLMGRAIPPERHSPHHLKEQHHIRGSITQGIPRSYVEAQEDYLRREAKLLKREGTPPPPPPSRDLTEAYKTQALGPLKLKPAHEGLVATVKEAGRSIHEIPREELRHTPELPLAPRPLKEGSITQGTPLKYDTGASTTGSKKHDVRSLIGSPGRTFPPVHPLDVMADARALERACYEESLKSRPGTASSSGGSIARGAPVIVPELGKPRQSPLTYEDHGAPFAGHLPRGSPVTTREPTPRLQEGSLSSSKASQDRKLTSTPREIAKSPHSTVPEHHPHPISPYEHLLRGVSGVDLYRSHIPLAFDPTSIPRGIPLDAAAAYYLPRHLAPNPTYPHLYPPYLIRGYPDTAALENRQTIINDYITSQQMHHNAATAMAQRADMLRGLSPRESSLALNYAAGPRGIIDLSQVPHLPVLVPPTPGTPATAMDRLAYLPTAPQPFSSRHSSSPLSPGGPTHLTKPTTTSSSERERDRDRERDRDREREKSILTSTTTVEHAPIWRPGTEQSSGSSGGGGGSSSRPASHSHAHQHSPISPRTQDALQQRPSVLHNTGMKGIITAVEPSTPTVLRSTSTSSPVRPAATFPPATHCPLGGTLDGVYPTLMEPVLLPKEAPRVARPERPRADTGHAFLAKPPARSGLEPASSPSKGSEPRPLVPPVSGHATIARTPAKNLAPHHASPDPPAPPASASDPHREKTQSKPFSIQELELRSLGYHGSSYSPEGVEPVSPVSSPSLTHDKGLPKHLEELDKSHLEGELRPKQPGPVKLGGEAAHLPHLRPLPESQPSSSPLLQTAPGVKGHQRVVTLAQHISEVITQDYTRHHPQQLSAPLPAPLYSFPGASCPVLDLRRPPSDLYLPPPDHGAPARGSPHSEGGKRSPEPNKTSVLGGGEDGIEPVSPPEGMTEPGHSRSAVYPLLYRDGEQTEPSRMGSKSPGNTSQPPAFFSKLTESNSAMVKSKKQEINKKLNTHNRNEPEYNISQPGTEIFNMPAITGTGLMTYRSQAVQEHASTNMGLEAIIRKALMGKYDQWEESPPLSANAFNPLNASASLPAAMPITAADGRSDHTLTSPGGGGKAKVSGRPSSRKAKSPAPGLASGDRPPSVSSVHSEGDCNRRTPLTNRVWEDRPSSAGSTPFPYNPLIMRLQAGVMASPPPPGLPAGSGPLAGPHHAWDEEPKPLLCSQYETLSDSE

Cc1ccc2[nH]c(CCN(C)C)c(CN3CCOCC3)c2c1
IC50 [1]: 10.7 µM (not active) | IC50 [2]: 6.09 µM (active)

COc1ccccc1C(=O)Nc1cnc(O)nc1O
EC50 [3]: > 112 µM (not active) | EC50 [4]: 0.25 µM (active) | EC50 [5]: < 0.3 µM (active)

COC(=O)c1ccc(CSc2ncnc3sc(C)c(C)c23)o1
EC50 [6]: 11.1 µM (active)

O=C(Oc1ccc2c(c1)O/C(=C\c1ccncc1)C2=O)c1ccccc1
IC50 [7]: 11.7 µM (not active) | IC50 [8]: 15.5 µM (not active) | EC50 [9]: > 99 µM (inactive) | EC50 [10]: 48 µM (inactive)

CC(=O)SC(C[N+](=O)[O-])c1cn(C(C)=O)c2ccccc12 (configuration not stated)
EC50 [11]: 12.9 µM (inconclusive) | EC50 [12]: 5.02 µM (inconclusive) | IC50 [13]: 14.4 µM (not active) | EC50 [14]: > 150 µM (inconclusive) | EC50 [15]: 19.5 µM (active) | EC50 [16]: 6.21 µM (inconclusive) | EC50 [17]: 6.74 µM (active) | EC50 [18]: > 32 µM (inactive) | EC50 [19]: 6.84 µM (active) | AC50 [20]: 3.54 µM (active) | AC50 [21]: 1.48 µM (active) | IC50 [22]: 14.5 µM (active)
